Test results from US4755523A, “Abietamide derivatives” (Nippon Shinyaku Co., Ltd., priority 1986, dated 1988).

Assays:
[1] = test system: cholesterol loaded rats (serum total cholesterol); experiment: Effect in cholesterol loaded rats (HCD test), serum total cholesterol increase-inhibiting rate; format: in vivo, Male Wister strain rats; conditions: high-cholesterol food containing 0.03% of test compound, 3 days, serum TC, ** significant at 1% level
Method: Test method: Male Wister strain rats of 4 weeks age (six rats per group) were used. They were fed with a high-cholesterol food containing 0.03% of the compound to be tested. After 3 days' feeding, they were fasted overnight, blood was collected therefrom, and the total cholesterol level (TC) in serum was measured. A group fed with a high cholesterol food containing no test compound and groups fed with normal synthetic food were called control group and normal groups, respectively. The serum TC increase-inhibiting rate (%) of the test compound was calculated by the following expression: [formula]

[2] = test system: Triton-induced hyperlipemic mice (serum total cholesterol); experiment: Effect in Triton-induced hyperlipemic mice (Triton test), inhibiting rate against serum total cholesterol increase; format: in vivo, Male ICR-strain mice; conditions: Triton WR-1339 500 mg/kg i.v., test compound 300 mg/kg oral, serum TC after 24 hours, ** significant at 1% level
Method: Test method: Male ICR-strain mice of 9 weeks age (6 to 9 mice per group) were used. A solution of Triton WR-1339 in physiological saline solution was injected from tail vein at the dose of 500 mg/kg whereupon hyperlipemia was induced. Physiological saline solution was injected to normal group intravenously. Immediately thereafter, 300 mg/kg of the test compound suspended in 0.5% methylcellulose (MC) was given orally. The group given with 0.5% MC solution was called a control group. After fasting for 24 hours, head was cut, blood was taken, and the TC value of the resulting serum was measured. The inhibiting rate (%) against serum TC increase of the test compound was calculated by the following expression: [formula]

[3] = test system: biosynthesis of cholesterol; conditions: Japanese Laid Open Application Sho-51/026864; cited from earlier work
[4] = test system: absorption of extrinsic cholesterol from the intestinal tract; conditions: Japanese Laid Open Application Sho-51/026864; cited from earlier work

| Compound | Inhibitory Rate for Cholesterol Increase (HCD Test) [1] [%] | Inhibitory Rate for Cholesterol Increase (Triton Test) [2] [%] | inhibition of the biosynthesis of cholesterol [3] | inhibition of absorption of extrinsic cholesterol from the intestinal tract [4] |
| --- | --- | --- | --- | --- |
| CC(C)C1CCC2=C(CCC3C(C)(C(=O)Nc4ccnn4-c4ccccc4)CCCC23C)C1 (stereo not shown) [Example 1, N-(1-phenylpyrazol-5-yl)-Δ^8-dihydroabietamide] | 115 | 32 |  |  |
| Cc1csc(NC(=O)C2(C)CCCC3(C)C4=C(CCC23)CC(C(C)C)CC4)n1 (stereo not shown) [Example 4, N-(4-Methylthiazol-2-yl)-Δ^8-dihydroabietamide] | 102 | 68 |  |  |
| Cc1cccc(C)c1NC(=O)C1(C)CCCC2(C)C3=C(CCC12)CC(C(C)C)CC3 (stereo not shown) [N--(2,6-Dimethylphenyl)-Δ^8-dihydroabietamide, reference compound] | 100 | -8 | do not inhibit the biosynthesis of cholesterol | inhibit absorption of extrinsic cholesterol from the intestinal tract |
| CC(C)C1CCC2=C(CCC3C(C)(C(=O)Nc4nccs4)CCCC23C)C1 (stereo not shown) [Example 3, N-(Thiazol-2-yl)-Δ^8-dihydroabietamide] | 47 | 75 |  |  |
